In ChEMBL document CHEMBL1146940, “Structure-activity relationship study between Ornithyl-Proline and Lysyl-Proline based tripeptidomimics as angiotensin-converting enzyme inhibitors” (Bioorg Med Chem Lett, 2006) one finds inhibition and Activity data, which are given here for 20 compounds.

Square brackets hold non-standard residues; d marks the D form. Peptide text beside a SMILES is read from it. Trp(5-OH) = N[C@@H](Cc1c[nH]c2ccc(O)cc12)C(=O)O; NMeW = CN[C@@H](Cc1c[nH]c2ccccc12)C(=O)O; Dip = N[C@H](C(=O)O)C(c1ccccc1)c1ccccc1; β3hW = N[C@H](CC(=O)O)Cc1c[nH]c2ccccc12; Tic = O=C(O)[C@@H]1Cc2ccccc2CN1; 3Thi = N[C@@H](Cc1ccsc1)C(=O)O; Cha = N[C@@H](CC1CCCCC1)C(=O)O; Orn = NCCC[C@H](N)C(=O)O

In assay [1] the target is Angiotensin-converting enzyme (Bos taurus) (UniProt P12820). Nature of the assay: Inhibition of ACE in bovine kidney. Also noted: concentration or dose not given beside the values. The settings on record: concentration not given here.
Sequence of Angiotensin-converting enzyme (Bos taurus) (P12820 whole entry, looked up): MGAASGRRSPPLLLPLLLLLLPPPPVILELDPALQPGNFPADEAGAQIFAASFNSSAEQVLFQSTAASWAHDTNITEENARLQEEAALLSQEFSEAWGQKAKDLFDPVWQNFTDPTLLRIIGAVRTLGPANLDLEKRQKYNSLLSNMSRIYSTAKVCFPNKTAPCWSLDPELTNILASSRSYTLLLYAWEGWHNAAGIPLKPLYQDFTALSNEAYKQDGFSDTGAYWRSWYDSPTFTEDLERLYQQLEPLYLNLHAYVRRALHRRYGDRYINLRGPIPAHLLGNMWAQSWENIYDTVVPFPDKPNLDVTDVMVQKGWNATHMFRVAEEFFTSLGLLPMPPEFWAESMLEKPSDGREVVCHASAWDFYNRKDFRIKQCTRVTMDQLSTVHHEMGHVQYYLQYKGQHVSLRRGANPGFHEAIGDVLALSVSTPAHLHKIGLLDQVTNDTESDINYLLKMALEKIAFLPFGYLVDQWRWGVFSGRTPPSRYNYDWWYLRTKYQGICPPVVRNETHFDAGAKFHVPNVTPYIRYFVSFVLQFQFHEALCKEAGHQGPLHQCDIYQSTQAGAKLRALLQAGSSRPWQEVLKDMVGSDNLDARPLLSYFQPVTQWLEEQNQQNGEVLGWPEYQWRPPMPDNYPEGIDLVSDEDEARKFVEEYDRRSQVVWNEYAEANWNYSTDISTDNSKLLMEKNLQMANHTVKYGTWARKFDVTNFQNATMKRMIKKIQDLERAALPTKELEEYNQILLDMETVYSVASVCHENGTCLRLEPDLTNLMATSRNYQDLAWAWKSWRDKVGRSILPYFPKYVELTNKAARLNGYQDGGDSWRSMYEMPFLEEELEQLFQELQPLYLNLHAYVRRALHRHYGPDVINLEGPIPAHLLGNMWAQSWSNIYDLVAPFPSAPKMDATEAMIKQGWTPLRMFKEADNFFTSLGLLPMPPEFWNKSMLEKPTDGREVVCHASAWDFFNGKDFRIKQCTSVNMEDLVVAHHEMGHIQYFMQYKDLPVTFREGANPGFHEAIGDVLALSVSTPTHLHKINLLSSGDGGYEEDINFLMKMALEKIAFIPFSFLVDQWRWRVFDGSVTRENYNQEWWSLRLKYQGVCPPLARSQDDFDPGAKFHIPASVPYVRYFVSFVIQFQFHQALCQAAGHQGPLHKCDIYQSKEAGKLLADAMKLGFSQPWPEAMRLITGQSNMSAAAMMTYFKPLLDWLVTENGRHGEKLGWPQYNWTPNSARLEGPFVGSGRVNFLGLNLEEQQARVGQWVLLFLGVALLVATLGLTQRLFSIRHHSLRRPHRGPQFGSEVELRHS
Assay [2] shares this target. In words: Activity against ACE in bovine kidney.

For `NCCCC[C@H](NC(=O)CCc1ccc(O)cc1)C(=O)N1CCC[C@H]1C(=O)O`, in assay [1], the inhibition (as a rule, the drop in the measured response relative to a control, in per cent) came out at 29.3%. In addition, the Activity in assay [2] is 9.52 mU/ml.

`NCCCC[C@H](NC(=O)C[C@@H](N)Cc1ccccc1)C(=O)N1CCC[C@H]1C(=O)O` displayed an inhibition in assay [1] of 22.6%. The compound also had an Activity in assay [2] of 10.4 mU/ml.

`NCCCC[C@H](NC(=O)[C@@H](N)Cc1ccco1)C(=O)N1CCC[C@H]1C(=O)O`: the inhibition in assay [1] is 10.1%. The compound also gave an Activity in assay [2] of 12.1 mU/ml.

Compound `NCCC[C@H](NC(=O)CCc1ccc(O)cc1)C(=O)N1CCC[C@H]1C(=O)O` displayed an inhibition in assay [1] of 23.8%. The Activity in assay [2] was 10.3 mU/ml.

In the case of `NCCC[C@H](NC(=O)CCc1nc2ccccc2[nH]1)C(=O)N1CCC[C@H]1C(=O)O`, the inhibition in assay [1] was 65.5%. Further, the Activity in assay [2] worked out at 4.7 mU/ml.

Compound `NCCC[C@H](NC(=O)C[C@@H](N)Cc1ccccc1)C(=O)N1CCC[C@H]1C(=O)O` gave an inhibition in assay [1] of 31.7%. The Activity in assay [2] came to 9.21 mU/ml.

In turn, `NCCC[C@H](NC(=O)[C@@H](N)Cc1ccco1)C(=O)N1CCC[C@H]1C(=O)O` came in with an inhibition in assay [1] of 35.6%. In assay [2], this compound returned an Activity of 8.67 mU/ml.

In assay [1], `NCCCC[C@H](NC(=O)[C@@H](N)Cc1ccsc1)C(=O)N1CCC[C@H]1C(=O)O` (H-[3Thi]-Lys-Pro-OH) registered an inhibition of 13.3%. In addition, in assay [2], the Activity was 11.7 mU/ml.

In turn, `NCCC[C@H](NC(=O)[C@@H](N)Cc1ccsc1)C(=O)N1CCC[C@H]1C(=O)O` (H-[3Thi]-[Orn]-Pro-OH) displayed an inhibition in assay [1] of 74.7%. The Activity in assay [2] was found to be 3.41 mU/ml.

The compound `NCCCC[C@H](NC(=O)[C@@H](N)CC1CCCCC1)C(=O)N1CCC[C@H]1C(=O)O` (H-[Cha]-Lys-Pro-OH) yielded an inhibition in assay [1] of 3.71%. For the same compound, the Activity in assay [2] amounted to 13.1 mU/ml.

Consider `NCCC[C@H](NC(=O)[C@@H](N)CC1CCCCC1)C(=O)N1CCC[C@H]1C(=O)O` (H-[Cha]-[Orn]-Pro-OH), for which, in assay [1], the inhibition was found to be 30.8%. The Activity in assay [2] was 9.32 mU/ml.

`NCCCC[C@H](NC(=O)[C@@H](N)C(c1ccccc1)c1ccccc1)C(=O)N1CCC[C@H]1C(=O)O` (H-[Dip]-Lys-Pro-OH): the inhibition in assay [1] came out at 33.8%. For the same compound, the Activity in assay [2] was determined as 8.91 mU/ml.

On to `NCCC[C@H](NC(=O)[C@@H](N)C(c1ccccc1)c1ccccc1)C(=O)N1CCC[C@H]1C(=O)O` (H-[Dip]-[Orn]-Pro-OH), for which the inhibition in assay [1] came to 27.7%. In assay [2], the Activity is 9.74 mU/ml.

In the case of `CN[C@@H](Cc1c[nH]c2ccccc12)C(=O)N[C@@H](CCCCN)C(=O)N1CCC[C@H]1C(=O)O` (H-[NMeW]-Lys-Pro-OH), the inhibition in assay [1] came to 39.1%. Besides, the Activity in assay [2] was 8.2 mU/ml.

For the compound `CN[C@@H](Cc1c[nH]c2ccccc12)C(=O)N[C@@H](CCCN)C(=O)N1CCC[C@H]1C(=O)O` (H-[NMeW]-[Orn]-Pro-OH), the inhibition in assay [1] stood at 63.6%. The Activity in assay [2] was 4.88 mU/ml.

Consider `NCCCC[C@H](NC(=O)[C@@H]1Cc2ccccc2CN1)C(=O)N1CCC[C@H]1C(=O)O` (H-[Tic]-Lys-Pro-OH), for which the inhibition in assay [1] was found to be 19.4%. Besides, the Activity in assay [2] worked out at 10.8 mU/ml.

Regarding `NCCC[C@H](NC(=O)[C@@H]1Cc2ccccc2CN1)C(=O)N1CCC[C@H]1C(=O)O` (H-[Tic]-[Orn]-Pro-OH), the inhibition in assay [1] was determined as 25%. This compound also yielded an Activity in assay [2] of 10.1 mU/ml.

For `NCCC[C@H](NC(=O)[C@@H](N)Cc1c[nH]c2ccc(O)cc12)C(=O)N1CCC[C@H]1C(=O)O` (H-[Trp(5-OH)]-[Orn]-Pro-OH), the inhibition in assay [1] stood at 68.8%. Further, the Activity in assay [2] is 4.2 mU/ml.

In turn, `NCCCC[C@H](NC(=O)C[C@@H](N)Cc1c[nH]c2ccccc12)C(=O)N1CCC[C@H]1C(=O)O` (H-[β3hW]-Lys-Pro-OH) came in with an inhibition in assay [1] of 30.2%. For the same compound, the Activity in assay [2] turned out to be 9.4 mU/ml.

With `NCCC[C@H](NC(=O)C[C@@H](N)Cc1c[nH]c2ccccc12)C(=O)N1CCC[C@H]1C(=O)O` (H-[β3hW]-[Orn]-Pro-OH), the inhibition in assay [1] was 9.13%. The Activity in assay [2] was 12.2 mU/ml.
